pEC50: −log10 of the molar value. Records with an inconclusive call do not appear.

This experiment concerns the target PAR-4 (PAWR) - atypical PKC interaction. The experiment is described as follows: inhibitors of PAWR-atypical PKC interaction (AID 1581). The settings on record: PAR4-aPKC protein interaction assay, normalized signal.
In general, pEC50 refers to the negative decadic logarithm of the EC50, by convention in mol/L. Consider `O=c1c(O)c(-c2ccc(O)cc2O)oc2cc(O)cc(O)c12`, for which the pEC50 is 5.00.

On to `NC[C@H](O)c1ccc(O)c(O)c1`, for which the negative logarithm of the EC50 (pEC50) was 4.54.

Take `CO[C@@]1(NC(=O)C(C(=O)O)c2ccc(O)cc2)C(=O)N2C(C(=O)O)=C(CSc3nnnn3C)CO[C@@H]21` (some centres not stated): the pEC50 is 4.96.

With `O=C1C=CC(=O)c2c(O)cccc21`, the negative logarithm of the EC50 (pEC50) is 4.74.

As to `C=Cc1c(C)c2cc3[nH]c(cc4nc(cc5nc(cc1[nH]2)C(C)=C5CCC(=O)O)C(CCC(=O)O)=C4C)c(C)c3C=C`, the pEC50 was 4.85.

Take `N[C@@H](Cc1ccc(O)c(O)c1)C(=O)O`: the pEC50 was 4.89.

As to `O=c1c(O)cc2c(O)oc3c(=O)c(O)cc4c3c2c1CC=4O`, the pEC50 was 4.68.

Source of the values: PubChem BioAssay AID1581.
